Among the test systems are SF-295 CNS; SNB-19 CNS; SNB-75 CNS; MCF7 breast; MALME-3M melanoma; KM12 colon; NCI-H226 lung; UACC-257 melanoma; T-47D breast; SW-620 colon.
What all share (assay): NCI tumour cell line growth inhibition, 48 h

SMILES strings stand for the structures.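 Test compounds were applied to cells in 96-well plates for 48 hours at 5 doses. GI50 is the concentration that inhibits growth by half. At the TGI there is no net growth.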 Some results are limits rather than exact numbers.

`CCCCCCCCCCCCCCCCCCOCC(O)COP(=O)(O)OCC1OC(n2cc(F)c(=O)[nH]c2=O)CC1O` (stereo not given): the TGI in the experiment on SF-295 CNS came out at 19 µM; in the experiment with SNB-19 CNS, 25.3 µM; in the experiment with SNB-75 CNS, 27.8 µM; in the experiment on MCF7 breast, 48.3 µM; in the experiment on MALME-3M melanoma, 33.9 µM; in the experiment with KM12 colon, 51 µM. Moreover, the TGI with NCI-H226 lung is more than 53.8 µM; with UACC-257 melanoma, 32.1 µM; with T-47D breast, 38.8 µM; in the experiment on SW-620 colon it was more than 61.4 µM.
For `CCCCSc1n/c(=C\c2ccc(N(C)C)cc2)c2nnnn12`, the TGI in the experiment with SF-295 CNS, in the experiment with SNB-19 CNS, with SNB-75 CNS, in the experiment on MCF7 breast, in the experiment with MALME-3M melanoma and with KM12 colon was more than 100 µM each time. For the same compound, the TGI in the experiment with NCI-H226 lung, with UACC-257 melanoma, with T-47D breast and with SW-620 colon was more than 100 µM in each case.
Consider `N#CC1=CNc2sccc2S1(=O)=O`, for which the TGI in the experiment on SF-295 CNS, with SNB-19 CNS, with SNB-75 CNS, in the experiment with MCF7 breast, in the experiment on MALME-3M melanoma and in the experiment on KM12 colon was more than 100 µM in each case. The TGI in the experiment with NCI-H226 lung, in the experiment on UACC-257 melanoma, in the experiment on T-47D breast and in the experiment with SW-620 colon was more than 100 µM each time.
On to `O=C1NC(N/N=C\c2ccccc2)=N/C1=C/c1ccc(Cl)cc1`, for which the TGI with SF-295 CNS amounted to 78.8 µM; in the experiment on SNB-19 CNS it was 35.9 µM; in the experiment with SNB-75 CNS it was 42.2 µM; with MCF7 breast, 57.4 µM; with MALME-3M melanoma, 62.1 µM; in the experiment with KM12 colon, 95.5 µM. In addition, the TGI is 43.3 µM in the experiment on NCI-H226 lung, more than 100 µM in the experiment with UACC-257 melanoma, more than 100 µM in the experiment on T-47D breast and more than 100 µM in the experiment with SW-620 colon.
Regarding `CC#CC(O)(C(=O)OC1CCCN(C)C1)C1=CC=CCC1` (stereo not given), the TGI in the experiment on SF-295 CNS, in the experiment with SNB-19 CNS, in the experiment with SNB-75 CNS, in the experiment with MCF7 breast, in the experiment with MALME-3M melanoma and with KM12 colon was more than 100 µM throughout. For the same compound, the TGI with NCI-H226 lung, with UACC-257 melanoma, in the experiment on T-47D breast and with SW-620 colon was more than 100 µM each time.
`CCOC(=O)C(O)(NC(C)=O)C(F)(F)F` (stereo not given): the TGI with SF-295 CNS, in the experiment with SNB-19 CNS, with SNB-75 CNS, with MCF7 breast, in the experiment on MALME-3M melanoma and with KM12 colon was more than 100 µM each time. The TGI in the experiment on NCI-H226 lung, in the experiment on UACC-257 melanoma, with T-47D breast and in the experiment with SW-620 colon was more than 100 µM each time.
Turning to `COc1cccc(-c2nc3sccn3c2-c2ccnc(NCCNC(=O)Nc3cccc(C(F)(F)F)c3)n2)c1`, the GI50 was 2.8 µM in the experiment with SF-295 CNS; 7.77 µM in the experiment with SNB-19 CNS; 3.41 µM in the experiment on SNB-75 CNS; 3.12 µM with MCF7 breast; 3.86 µM in the experiment on MALME-3M melanoma; 3.36 µM with KM12 colon. In addition, the GI50 in the experiment with NCI-H226 lung was 4.58 µM; in the experiment with UACC-257 melanoma it was 4.34 µM; with T-47D breast it was 3.77 µM; with SW-620 colon it was 4.47 µM. For the same compound, the TGI in the experiment on SF-295 CNS was 14.9 µM; with SNB-19 CNS it was more than 100 µM; in the experiment with SNB-75 CNS, 21.7 µM; in the experiment on MCF7 breast, 13.3 µM; with MALME-3M melanoma, 26.8 µM; with KM12 colon, 10.1 µM. Besides, the TGI with NCI-H226 lung amounted to 68.6 µM; in the experiment on UACC-257 melanoma, 16.5 µM; with T-47D breast, 13.8 µM; in the experiment with SW-620 colon it was 91.5 µM.
Turning to `COc1ccc(OC)c2cc(Cc3ccc(N(C)C)cc3)c(=O)c(Cc3ccc(N(C)C)cc3)cc12`, the TGI in the experiment with SF-295 CNS, with SNB-19 CNS, in the experiment on SNB-75 CNS, with MCF7 breast, with MALME-3M melanoma and in the experiment with KM12 colon was more than 100 µM in each case. Besides, the TGI with NCI-H226 lung, in the experiment with UACC-257 melanoma, in the experiment on T-47D breast and with SW-620 colon was more than 100 µM each time.
For `COc1ccc(NC2Oc3cc4c(cc3C(c3cc(OC)c(O)c(OC)c3)C2C)OCO4)cc1` (stereo not given), the TGI is 60.5 µM with SF-295 CNS; more than 100 µM in the experiment on SNB-19 CNS; 15 µM with SNB-75 CNS; more than 100 µM in the experiment with MCF7 breast; 35.2 µM in the experiment with MALME-3M melanoma; more than 100 µM with KM12 colon. In addition, the TGI in the experiment with NCI-H226 lung is 93.6 µM; in the experiment on UACC-257 melanoma it was more than 100 µM; in the experiment with T-47D breast, more than 100 µM; in the experiment on SW-620 colon it was more than 100 µM.
In the case of `CSC(=NC1=NC(C(F)(F)F)(C(F)(F)F)N=C(c2ccccc2)O1)SC`, the TGI in the experiment on SF-295 CNS is more than 100 µM; with SNB-19 CNS it was more than 100 µM; with SNB-75 CNS, 18.9 µM; with MCF7 breast, 60.5 µM; in the experiment with MALME-3M melanoma it was 37.7 µM; with KM12 colon it was 20.7 µM. Besides, the TGI in the experiment with NCI-H226 lung was 83.9 µM; with UACC-257 melanoma, 60.5 µM; in the experiment on T-47D breast, 24.2 µM; in the experiment on SW-620 colon, more than 100 µM.
Turning to `COC1/C=C/C(C)C(C(C)C(OC)C(C)CCC(=O)C(C)C(CCC(=O)O)OC)OC(=O)/C=C/C=C(\C)CC(OC)CC2=CC(=O)O[C@@H](C(C)C(OC)CC(OC)/C=C/C(C)C(OC)C1)[C@H]2O` (stereo not given in full), the TGI is more than 5 µM in the experiment with SF-295 CNS; more than 5 µM with SNB-19 CNS; 2.22 µM in the experiment with SNB-75 CNS; more than 5 µM in the experiment with MCF7 breast; 2.94 µM in the experiment with MALME-3M melanoma; more than 5 µM in the experiment on KM12 colon. Also, the TGI in the experiment with NCI-H226 lung was 2.13 µM; with UACC-257 melanoma, more than 3.9 µM; in the experiment with T-47D breast it was more than 5 µM; in the experiment on SW-620 colon, more than 5 µM.
`CC(C)(C)OC(=O)N1C(OP(=O)(Oc2ccccc2)Oc2ccccc2)=COc2cccnc21`: the TGI is more than 100 µM in the experiment with SF-295 CNS; more than 100 µM in the experiment with SNB-19 CNS; more than 100 µM in the experiment on SNB-75 CNS; more than 100 µM in the experiment on MCF7 breast; 98.2 µM in the experiment with MALME-3M melanoma; more than 100 µM in the experiment on KM12 colon. In addition, the TGI with NCI-H226 lung was more than 100 µM; with UACC-257 melanoma it was more than 100 µM; with T-47D breast it was 94.2 µM; in the experiment on SW-620 colon it was more than 100 µM.
Regarding `Cc1cc(S(=O)(=O)Nc2nnc3cc(C(F)(F)F)cc(C)n23)c(S)cc1Cl`, the TGI in the experiment with SF-295 CNS is more than 100 µM; with SNB-19 CNS it was more than 86.4 µM; in the experiment with SNB-75 CNS, more than 100 µM; in the experiment on MCF7 breast, more than 31.6 µM; in the experiment on MALME-3M melanoma it was more than 100 µM; with KM12 colon, more than 100 µM. Moreover, the TGI with NCI-H226 lung was more than 96.5 µM; in the experiment on UACC-257 melanoma it was more than 100 µM; in the experiment with T-47D breast it was more than 100 µM; with SW-620 colon it was more than 100 µM.
In the case of `O=C1OS2(OCc3cccc4cccc2c34)c2ccccc21` (stereo not given), the TGI in the experiment with SF-295 CNS, with SNB-19 CNS, in the experiment on SNB-75 CNS, with MCF7 breast, in the experiment with MALME-3M melanoma and with KM12 colon was more than 100 µM each time. Besides, the TGI with NCI-H226 lung, in the experiment with UACC-257 melanoma, in the experiment on T-47D breast and in the experiment on SW-620 colon was more than 100 µM each time.
As to `COC(=O)c1cncc2c1CC1C3(C(=O)OC)C=NC(C4C(CO)=CCC43)C21C` (stereo not given), the TGI with SF-295 CNS, with SNB-19 CNS, in the experiment on SNB-75 CNS, in the experiment on MCF7 breast, with MALME-3M melanoma and with KM12 colon was more than 100 µM throughout. Also, the TGI in the experiment with NCI-H226 lung, in the experiment with UACC-257 melanoma, with T-47D breast and with SW-620 colon was more than 100 µM each time.
Take `N#CCCN(CCCN(C(=O)Nc1ccccc1)c1ccccc1)C(=O)Nc1ccccc1`: the TGI in the experiment on SF-295 CNS, with SNB-19 CNS, in the experiment with SNB-75 CNS, in the experiment with MCF7 breast, in the experiment on MALME-3M melanoma and with KM12 colon was more than 100 µM throughout. Also, the TGI in the experiment with NCI-H226 lung, with UACC-257 melanoma, with T-47D breast and in the experiment with SW-620 colon was more than 100 µM throughout.

The values above are taken from PubChem BioAssay (NCI).
